In US20220057378A1, “MICROBIAL MICROFLUIDIC BIOSENSOR” (priority 2015, published 2022):
Read-outs that look alike come from different tables or passages of the source.

Experiments:
As3 = test: microplate specificity test with on- and off-target heavy metals (fluorescence); type: cell-based, E. coli; conditions: on-target = 1, no-toxin control = 0; As 1.3, Cd 0.44, Cr(VI) 2, Cu 20, Pb 1, Hg 0.1, Co 20, Fe 500, Ni 1.7, Zn 7.6 μM
Source text: (§1) Each column represents the fluorescence response of a strain to the on-target metal (normalized to “1”) and all off-target metals, where “0” represents the unchanged response for the no-toxin control.
(§2) Although the ability to sense cobalt, iron, nickel, and zinc is of secondary importance, these heavy metals were included as potential off-target inducers because they may be present in the natural water supply under test. […] This combinatorial logic was implemented in algorithms.

Cd1 = test: as above; type: cell-based, E. coli; conditions: on-target = 1, no-toxin control = 0; As 1.3, Cd 0.44, Cr(VI) 2, Cu 20, Pb 1, Hg 0.1, Co 20, Fe 500, Ni 1.7, Zn 7.6 μM
Source text: as §1, §2

Cr5 = test: as above; type: cell-based, E. coli; conditions: on-target = 1, no-toxin control = 0, As 1.3, Cd 0.44, Cr(VI) 2, Cu 20, Pb 1, Hg 0.1, Co 20, Fe 500, Ni 1.7, Zn 7.6 μM
Source text: as §1, §2

Cu1 = test: as above; type: cell-based, E. coli; conditions: on-target = 1, no-toxin control = 0; As 1.3, Cd 0.44, Cr(VI) 2, Cu 20, Pb 1, Hg 0.1, Co 20, Fe 500, Ni 1.7, Zn 7.6 μM
Source text: as §1, §2

Pb2 = test: as above; type: cell-based, E. coli; conditions: on-target = 1, no-toxin control = 0; As 1.3, Cd 0.44, Cr(VI) 2, Cu 20, Pb 1, Hg 0.1, Co 20, Fe 500, Ni 1.7, Zn 7.6 μM
Source text: as §1, §2

E. coli MG1655 = type: cell-based; conditions: for Number DE Genes: false discovery rate below 1%
Source text: RNA-Seq results for promoter activation in E. coli MG1655 in response to single and multiple toxin exposures at low and high concentrations: Our analysis of the sequencing data from RNA-Seq experiments to determine candidate genes that are induced upon toxin exposure consisted of three main tasks: sequence alignment, quantification of gene expression, and identification of differentially expressed genes. Sequence alignment: Reads were aligned to the reference E. coli K-12 substr. MG1655 genome using a tolerance of at most two mismatches per alignment to protect against sequencing errors. The alignment was performed using Bowtie software, 5 which is known to be very efficient in aligning reads to a reference genome. Without being limiting, Bowtie software 5 can be used for the alignment. Those skilled in the art will appreciate that there are many such software programs for performing alignments.
Quantification of gene expression: The expression level of each gene was determined as a function of the number of aligned reads mapping to the gene. […] Additionally, we implemented our own algorithms for sequence alignment and quantification of gene expression in order to crosscheck all results.
Identification of differentially expressed genes: Finally, a set of statistical and information theory algorithms were applied in order to extract not only differentially expressed (DE) genes for each toxin with respect to the control samples (pure water) but also toxin-specific genes. DESeq is a standard tool for identifying DE genes that allowed us to select sensitive genes with differential expression between the control samples (pure water) and the cells exposed to toxin. It assumes that the number of counts for each gene across experimental replicates follows a negative binomial distribution (8, 9). We considered genes with a False Discovery Rate (FDR) lower than 1% as DE in order to ensure statistically robust DE genes. […] Additionally, genes with the largest number of counts and expression levels are preferable in order to maximize the signal-to-noise ratio. When it is not possible to find toxin-specific genes, the next generation of good candidates is formed by those genes satisfying the above properties for a small subset of toxins (multiple-toxin response). It is desirable to have single-toxin-specific genes for several of the toxins in the combination in order to determine toxin-specific multi-gene-responses by means of logical operations. […] Therefore, we have developed information theoretic measures to improve the toxin separability. The core idea of the approach is that low entropies (or highly informative genes) correspond to toxin-specific genes, while large entropies (low information) are associated with scenarios in which DE fold-changes across different toxins are similar and should be discarded.
(§3) Milestone 2.1: Expose target cells to toxins of interest over four orders of magnitude of concentration and extract RNA: Three strains of bacteria were exposed to relevant levels of all toxins and extracted RNA. The toxin exposure protocol involves first growing a culture of bacterial cells to mid-log phase (OD≤0.2). […] Finally, cellular RNA was stabilized using Qiagen RNA Protect reagent, the cells were centrifuged, and the pellet was frozen at −80° C. To investigate the cellular RNA response to toxin insult, we exposed E. coli MG1655, E. coli LABEC01, and B. subtilis 168 cells to the toxins and concentrations shown in Table 7 and extracted RNA.
Milestone 2.5: Prepare isolated RNA for Illumina sequencing using vendor provided reagents and carry out sequencing: We have prepared libraries and carried out sequencing for all toxins of interest.

E. coli MG1655/Pb7 = test: 18-strain chip induction; type: cell-based
Source text: (§4) In an embodiment herein, the toxin response data across 18 unique sensing strains were also collected using a new chip design that houses 16 E. coli strains and 2 B. subtilis strains. The B. subtilis NCIB 3610/Amm3 construct is a “lights-off” sensor, meaning that GFP production drops when ammonium is introduced, following a slight increase due to faster growth on this preferred nitrogen source. […] By combining these sensor responses, we can identify cobalt by the unique response of Pb7 alone and lead by the unique combination of Zn6, Pb7, and Pb8 responses.

[1] = test system: E. coli MG1655 strains Co2-Co4 and Co6-Co8; test: plate reader validation of cobalt-sensing promoters (GFP fluorescence); type: cell-based; conditions: microplate wells, various concentrations of cobalt
Hg3 = test: microplate specificity test with on- and off-target heavy metals (fluorescence); type: cell-based, E. coli; conditions: on-target = 1, no-toxin control = 0, As 1.3, Cd 0.44, Cr(VI) 2, Cu 20, Pb 1, Hg 0.1, Co 20, Fe 500, Ni 1.7, Zn 7.6 μM
Source text: as §1, §2

GFP sensor strains = test: SVM classification of GFP sensor responses (toxin / no toxin); type: cell-based; conditions: from classification accuracy and ROC curves
Source text: Computational models to determine the threshold of detection for specific sensors based on models of experimental GFP responses. We used machine learning techniques to determine the relationships between the GFP output signal and the presence of a toxin. We have created a database containing the collected sensor response data. We have quantified the GFP threshold of detection for each sensor construct. We have constructed Receiver Operating Characteristic (ROC) curves for each sensor to achieve robust sensing. We constructed machine learning models capable of inferring the relationships between the GFP sensor responses and the presence or absence of a toxin at a given concentration. The algorithm learns these relationships from a set of training samples (GFP sensor responses) defined by the set of experimental conditions from which they were generated. The aim of the algorithm is to provide a general method capable of determining the experimental conditions associated with GFP sensor responses through the use of historical data. Specifically, we have built classification models based on Support Vector Machines (SVMs), which is one of the most popular classifiers due to its excellent performance in many contexts and its solid mathematical basis (1). For each toxin and concentration, we solved a binary classification problem in which the positive class represents the presence of the toxin in water and the negative class is associated with clean environments. Patterns were constructed with features containing GFP sensor responses at various timestamps to capture the temporal dynamics of the GFP signal. The optimal meta-parameters of the SVM classifier were determined by applying a 5-crossvalidation during the training phase (2). In order to have a reliable estimate of the performance of the model when deployed in real environments, we measured its performance over a set of samples (test patterns) not seen during the training phase. The SVM's performance was determined by the percentage of test samples correctly labeled as toxin/no toxin (classification accuracy). 80% of samples were used for training the SVM models and the remaining 20% of samples was used to evaluate their effectiveness. We generated 20 random training/test partitions to have an estimate of performance independent of the data partition.
Specifically, we have built classification models based on Support Vector Machines (SVMs), which is one of the most popular classifiers due to its excellent performance in many contexts and its solid mathematical basis. For each toxin and concentration, we solved a binary classification problem in which the positive class represents the presence of the toxin in water and the negative class is associated with clean environments. Patterns were constructed with features containing GFP sensor responses at various timestamps to capture the temporal dynamics of the GFP signal. The optimal meta-parameters of the SVM classifier were determined by applying a 5-crossvalidation during the training phase.
In order to have a reliable estimate of the performance of the model when deployed in real environments, we measured its performance over a set of samples (test patterns) not seen during the training phase. The SVM's performance was determined by the percentage of test samples correctly labeled as toxin/no toxin (classification accuracy). 80% of samples were used for training the SVM models and the remaining 20% of samples was used to evaluate their effectiveness. We generated 20 random training/test partitions based on data collected in single-strain chips (no crosstalk data) to have an estimate of performance.

cellular esterases = test: inhibition of cellular esterase activity (CFDA cleavage) in gill chip; type: cell-based, S. cerevisiae; conditions: 0.725 g/l malathion; two sequential exposures; recovers subsequently
Protocol: Additional constructs based on this promoter were generated while collecting on-chip response data for all other sensing strains using the sensor prototypes was performed. […] S. cerevisiae was loaded into a gill chip and CFDA (carboxyfluorescein diacetate) was added to the growth medium. […] Because CFDA breaks down in the medium over time thereby increasing the background signal, fresh medium+CFDA was introduced at 1,500 and 2,000 min. This explains the drift in baseline GFP during this period, which can be eliminated in subsequent experiments by mixing dye and medium on-chip.

Mall construct = test: malathion construct loaded into the sensor device; type: cell-based, E. coli; conditions: prototype sensor
B. subtilis 168 = test: RNA-Seq after toxin exposure; type: cell-based
Protocol: as §3
We used RNA-Seq to verify the nasB promoter in B. subtilis 168 as a sensitive and specific promoter for the last remaining toxin, ammonium (see FIG. 2). […] This is desirable because, unlike the other water toxins of interest, ammonium is expected to increase the growth rate of biosensor cells. In this situation, a “lights-on” sensor could be triggered by any substance that increases the growth rate and resulting GFP production ability of cells, whereas a “lights-off” sensor remains immune to this effect.

[2] = test system: B. subtilis NCIB 3610/Amm3; test: 18-strain chip induction; type: cell-based; conditions: 5 ppm NH4-N, GFP production drops
Source text: as §4

Compound	fluorescence response of strain As3 (on-target arsenic) (As3)	fluorescence response of strain Cd1 (on-target cadmium) (Cd1)	fluorescence response of strain Cr5 (on-target chromium(VI)) (Cr5)	fluorescence response of strain Cu1 (on-target copper) (Cu1)	fluorescence response of strain Pb2 (on-target lead) (Pb2)	Number DE Genes (E. coli MG1655; high concentration)	Number DE Genes (E. coli MG1655; low concentration)	fluorescence response of strain Hg3 (on-target mercury) (Hg3)	threshold of detection (GFP sensor strains)	also measured
[Co] [Cobalt]	0.30	0.67	−0.11	−0.01	0.80	1274	609			response of the dadA promoter (E. coli MG1655; RNA-Seq mean fold change): specific to cobalt alone; response of the hmp promoter (E. coli MG1655; RNA-Seq mean fold change): specific to cobalt alone; response of the ilvB promoter (E. coli MG1655; RNA-Seq mean fold change): specific to cobalt alone; response of the lipA promoter (E. coli MG1655; RNA-Seq mean fold change): specific to cobalt alone; response of the mmuP promoter (E. coli MG1655; RNA-Seq mean fold change): specific to cobalt alone; response of the soxR promoter (E. coli MG1655; RNA-Seq mean fold change): specific to cobalt alone; response of the tehA promoter (E. coli MG1655; RNA-Seq mean fold change): specific to cobalt alone; response of the ygbA promoter (E. coli MG1655; RNA-Seq mean fold change): specific to cobalt alone; response of the yjbJ promoter (E. coli MG1655; RNA-Seq mean fold change): specific to cobalt alone; response of the yqfA promoter (E. coli MG1655; RNA-Seq mean fold change): specific to cobalt alone; GFP response of strain Pb7 (E. coli MG1655/Pb7): responds sensitively; GFP response to cobalt in the growth medium [1]: significantly respond
[Fe] [Iron]	−0.06	−0.31	0.86	0.17	0.96	70	32	−0.38		fluorescence response of strain Cr5 (on-target chromium(VI)) (Cr5; listed as iron): sensitive
CCOC(=O)CC(SP(=S)(OC)OC)C(=O)OCC (stereo not shown) [Malathion, malathion]						41	370		72.5 mg/L	response of the nemR promoter (E. coli MG1655; RNA-Seq mean fold change): responds to high concentrations; cell fluorescence (CFDA cleavage by cellular esterases) (cellular esterases): significantly drops; response of Mall construct in sensor device (Mall construct): did not produce a discernable response
[Ni] [Nickel]	−0.08	−0.08	−0.35	−0.05	0.16	95	43			
[Zn] [Zinc]	−0.14	−0.09	0.35	−0.08	1.06	596	24	0.78		fluorescence response of strain Hg3 (on-target mercury) (Hg3; listed as zinc): sensitive; response of the mntH promoter (E. coli MG1655; RNA-Seq mean fold change): high concentrations of zinc alone; response of the shiA promoter (E. coli MG1655; RNA-Seq mean fold change): high concentrations of zinc alone; response of the yjjZ promoter (E. coli MG1655; RNA-Seq mean fold change): responds monotonically to increasing concentrations; response of the zntA promoter (E. coli MG1655; RNA-Seq mean fold change): shows sensitivity to low and high concentrations; response of the zraP promoter (E. coli MG1655; RNA-Seq mean fold change): responds specifically and monotonically to increasing concentrations
Ammonium									one	response of the nasB promoter (B. subtilis 168): sensitive and specifically downregulated; GFP response of Amm3 strain (lights-off sensor) [2]: respond sensitively
